Converted amounts (≈) assume the structure as drawn. “And” between values parts separate entries of the source, which are not always exact repeats. Equal values may be shown once. Blank lines part the entries; values can stand above or below the molecule they belong to.
Tests used:
Assay in all cases: ≥ marks a high value that may be exact or a test limit, other limits are often not marked, values filed in µg/mL are converted to µM
Aeromonas hydrophila = tested on: Aeromonas hydrophila
[1] = tested on: Bacillus pumilus ATCC 63202
[2] = tested on: Bacillus subtilis ATCC 9372
Bacillus subtilis = tested on: Bacillus subtilis
[3] = tested on: Candida albicans ATCC 14053
Candida albicans = tested on: Candida albicans
Edwardsiella tarda = tested on: Edwardsiella tarda
Enterococcus avium = tested on: Enterococcus avium
[4] = tested on: Enterococcus faecalis ATCC 51299
[5] = tested on: Enterococcus faecium ATCC 51559
[6] = tested on: Escherichia coli ATCC 25922
Escherichia coli = tested on: Escherichia coli
[7] = tested on: Gardnerella vaginalis ATCC 14018
[8] = tested on: Gardnerella vaginalis ATCC 49145
Gardnerella vaginalis = tested on: Gardnerella vaginalis
[9] = tested on: Lactiplantibacillus plantarum ATCC 14917
[10] = tested on: Lactobacillus crispatus ATCC 33820
Lactobacillus crispatus = tested on: Lactobacillus crispatus
[11] = tested on: Lactobacillus gasseri ATCC 33323
[12] = tested on: Lactobacillus jensenii ATCC 25258
[13] = tested on: Pseudomonas aeruginosa ATCC 27853
Pseudomonas aeruginosa = tested on: Pseudomonas aeruginosa
[14] = tested on: Staphylococcus aureus ATCC 25923
[15] = tested on: Staphylococcus aureus ATCC 31007
[16] = tested on: Staphylococcus aureus ATCC 43300
[17] = tested on: Staphylococcus aureus ATCC 49476
Staphylococcus aureus MR = tested on: Staphylococcus aureus MR
Staphylococcus aureus = tested on: Staphylococcus aureus
Streptococcus agalactiae = tested on: Streptococcus agalactiae
Streptococcus anginosus = tested on: Streptococcus anginosus
[18] = tested on: Streptococcus intermedius
[19] = tested on: Streptococcus pasteurianus
[20] = tested on: Candida albicans ATCC 90028
Candida krusei ATCC 6258 = tested on: Candida krusei ATCC 6258
Candida krusei = tested on: Candida krusei
[21] = tested on: Candida parapsilosis ATCC 22019
Candida parapsilosis = tested on: Candida parapsilosis
[22] = tested on: Candida tropicalis B51a/5
Candida tropicalis = tested on: Candida tropicalis
[23] = tested on: Enterobacter cloacae HNTCC 53001
[24] = tested on: Enterococcus faecalis ATCC 29212
[25] = tested on: Klebsiella pneumoniae KK3 9904
[26] = tested on: Proteus mirabilis ATCC 25933
[27] = tested on: Staphylococcus epidermidis RP62A
[28] = tested on: Acinetobacter baumannii ATCC 19606
Acinetobacter junii RT-4 = tested on: Acinetobacter junii RT-4
Bacillus megaterium Bm11 = tested on: Bacillus megaterium Bm11
[29] = tested on: Candida albicans ATCC 10231
Escherichia coli D21 = tested on: Escherichia coli D21
[30] = tested on: Pseudomonas aeruginosa ATCC 15692
[31] = tested on: Pseudomonas syringae pv. tabaci 1918NCPPB
Saccharomyces cerevisiae = tested on: Saccharomyces cerevisiae
[32] = tested on: Schizosaccharomyces pombe
[33] = tested on: Staphylococcus aureus Cowan 1
Staphylococcus capitis 1 = tested on: Staphylococcus capitis 1
[34] = tested on: Staphylococcus epidermidis ATCC 12228
[35] = tested on: Streptococcus pyogenes ATCC 21547
[36] = tested on: Yersinia pseudotuberculosis YPIII

MIC (Aeromonas hydrophila): ≥ 160 µM
MIC [1]: 1.3 µM (≈ 3.88 µg/mL)
MIC [2]: 2.7 µM (≈ 8.05 µg/mL)
MIC (Bacillus subtilis): 1.7 µM (≈ 5.07 µg/mL)
MIC [3]: 2.62 µM (≈ 7.81 µg/mL)
MIC (Candida albicans): 26.7 µM and 42.9 µM
MIC (Edwardsiella tarda): 20 µM (≈ 59.6 µg/mL)
MIC (Enterococcus avium): 0.926 µM (≈ 2.76 µg/mL)
MIC [4]: 10.8 µM (≈ 32.2 µg/mL)
MIC [5]: 2.7 µM (≈ 8.05 µg/mL)
MIC [6]: 42.9 µM (≈ 128 µg/mL)
MIC (Escherichia coli): 5 µM and 1.85 µM
MIC [7]: 1.31 µM and 2.62 µM
MIC [8]: 1.31 µM (≈ 3.91 µg/mL)
MIC (Gardnerella vaginalis): 1.85 µM (≈ 5.53 µg/mL)
MIC [10]: ≥ 41.9 µM
MIC (Lactobacillus crispatus): 29.6 µM (≈ 88.4 µg/mL)
MIC [11]: ≥ 168 µM
MIC [12]: ≥ 83.8 µM
MIC [13]: 21.5 µM (≈ 64 µg/mL)
MIC (Pseudomonas aeruginosa): 6.67 µM (≈ 19.9 µg/mL)
MIC [14]: 2.7 µM and 5.4 µM
MIC [15]: 5.4 µM (≈ 16.1 µg/mL)
MIC [16]: 2.7 µM (≈ 8.05 µg/mL)
MIC [17]: 2.68 µM (≈ 8 µg/mL)
MIC (Staphylococcus aureus MR): 5.37 µM (≈ 16 µg/mL)
MIC (Staphylococcus aureus): 5 µM (≈ 14.9 µg/mL)
MIC (Streptococcus agalactiae): 3.71 µM (≈ 11 µg/mL)
MIC (Streptococcus anginosus): 3.71 µM (≈ 11 µg/mL)
MIC [18]: 5.24 µM (≈ 15.6 µg/mL)
MIC [19]: 1.85 µM (≈ 5.53 µg/mL)
Compound: CC[C@H](C)[C@H](NC(=O)[C@H](C)NC(=O)[C@H](CCCCN)NC(=O)CNC(=O)[C@H](C)NC(=O)[C@H](CO)NC(=O)[C@H](Cc1ccccc1)NC(=O)[C@H](CC(C)C)NC(=O)CNC(=O)CNC(=O)[C@@H](NC(=O)[C@@H](NC(=O)[C@H](Cc1cnc[nH]1)NC(=O)[C@H](Cc1cnc[nH]1)NC(=O)[C@@H](NC(=O)[C@@H](N)Cc1ccccc1)[C@@H](C)CC)[C@@H](C)CC)[C@@H](C)CC)C(=O)N[C@@H](Cc1cnc[nH]1)C(=O)N[C@@H](CCCN=C(N)N)C(=O)N[C@@H](CC(C)C)C(=O)N[C@H](C(=O)N[C@@H](CCCN=C(N)N)C(=O)N[C@@H](CCCN=C(N)N)C(=O)N[C@@H](CCCN=C(N)N)C(=O)N[C@@H](CCCN=C(N)N)C(=O)N[C@@H](CCCN=C(N)N)C(=O)O)[C@@H](C)CC [FIHHIIGGLFSAGKAIHRLIRRRRR]
MIC [9]: ≥ 41.9 µM

MIC [20]: 25 µM (≈ 64.4 µg/mL)
MIC (Candida albicans): 40 µM (≈ 103 µg/mL)
MIC (Candida krusei ATCC 6258): ≥ 40 µM
MIC (Candida krusei): ≥ 40 µM
MIC [21]: ≥ 40 µM
MIC (Candida parapsilosis): ≥ 40 µM
MIC [22]: 10 µM (≈ 25.8 µg/mL)
MIC (Candida tropicalis): 20 µM (≈ 51.5 µg/mL)
MIC [23]: ≥ 40 µM
MIC [24]: 20 µM (≈ 51.5 µg/mL)
MIC [6]: 50 µM (≈ 129 µg/mL)
MIC [25]: ≥ 40 µM
MIC [26]: ≥ 40 µM
MIC [13]: 40 µM (≈ 103 µg/mL)
MIC [14]: 3 µM (≈ 7.73 µg/mL)
MIC [27]: 5 µM (≈ 12.9 µg/mL)
Compound: CC[C@H](C)[C@H](NC(=O)[C@@H]1CCCN1C(=O)[C@H](CC(C)C)NC(=O)[C@@H](N)Cc1ccccc1)C(=O)N[C@@H](CC(C)C)C(=O)N[C@@H](C)C(=O)N[C@@H](CO)C(=O)N[C@@H](CC(C)C)C(=O)N[C@@H](C)C(=O)N[C@@H](C)C(=O)N[C@@H](CCCCN)C(=O)N[C@@H](Cc1ccccc1)C(=O)NCC(=O)N1CCC[C@H]1C(=O)N[C@@H](CCCCN)C(=O)N[C@@H](CC(C)C)C(=O)N[C@@H](Cc1ccccc1)C(=O)N[C@@H](CO)C(=O)N[C@@H](CC(C)C)C(=O)N[C@H](C(=O)N[C@H](C(=O)N[C@@H](CCCCN)C(=O)N[C@@H](CCCCN)C(=O)N[C@@H](CO)C(=O)O)[C@@H](C)O)C(C)C [FLPILASLAAKFGPKLFSLVTKKS]

MIC [28]: 6 µM (≈ 10 µg/mL)
MIC (Acinetobacter junii RT-4): 3 µM (≈ 5 µg/mL)
MIC (Bacillus megaterium Bm11): 3 µM (≈ 5 µg/mL)
MIC [29]: 12 µM (≈ 20 µg/mL)
MIC [24]: 12 µM (≈ 20 µg/mL)
MIC [6]: 24 µM (≈ 40 µg/mL)
MIC (Escherichia coli D21): 12 µM (≈ 20 µg/mL)
MIC [30]: 12 µM (≈ 20 µg/mL)
MIC [13]: 24 µM (≈ 40 µg/mL)
MIC [31]: 6 µM (≈ 10 µg/mL)
MIC (Saccharomyces cerevisiae): 24 µM (≈ 40 µg/mL)
MIC [32]: 12 µM (≈ 20 µg/mL)
MIC [14]: 6 µM (≈ 10 µg/mL)
MIC [33]: 6 µM (≈ 10 µg/mL)
MIC (Staphylococcus capitis 1): 3 µM (≈ 5 µg/mL)
MIC [34]: 3 µM (≈ 5 µg/mL)
MIC [35]: 3 µM (≈ 5 µg/mL)
MIC [36]: 3 µM (≈ 5 µg/mL)
Compound: CC[C@H](C)[C@H](NC(=O)[C@H](CCCN=C(N)N)NC(=O)CNC(=O)[C@H](CC(C)C)NC(=O)[C@H](Cc1ccccc1)NC(=O)[C@H](CCCCN)NC(=O)[C@H](CO)NC(=O)[C@H](Cc1ccccc1)NC(=O)[C@H](Cc1c[nH]c2ccccc12)NC(=O)[C@H](CCCN=C(N)N)NC(=O)[C@@H](NC(=O)[C@@H](N)Cc1ccccc1)C(C)C)C(=O)N[C@@H](CC(C)C)C(N)=O [FVRWFSKFLGRIL]
